The record followed here is paper PMC7119080 (Bioorganic & Medicinal Chemistry Letters, 2005).

The target in experiment [1] is Papain (Carica papaya, UniProt P00784). In kind it is biochemical.
Experiment [2] has as its target Chymotrypsin (Bos taurus, UniProt P00766). The experiment in a line: biochemical.

Sequence of Papain (P00784 134-345 limits assumed): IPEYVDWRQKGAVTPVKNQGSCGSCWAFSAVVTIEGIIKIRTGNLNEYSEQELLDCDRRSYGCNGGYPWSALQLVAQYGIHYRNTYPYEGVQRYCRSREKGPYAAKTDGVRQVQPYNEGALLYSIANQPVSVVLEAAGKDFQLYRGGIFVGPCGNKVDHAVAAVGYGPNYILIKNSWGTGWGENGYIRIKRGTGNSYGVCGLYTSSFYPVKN

As to `O=C1C(=O)N(Cc2cc3ccccc3s2)c2ccc(I)cc21` [Compound 4o], the “more potent inhibition for SARS CoV 3CL^pro than for papain” value in experiment [1] is given as 90–105 times.
As to `O=C1C(=O)N(Cc2cc3ccccc3s2)c2c(Br)cccc21` [Compound 4k], the “more potent inhibition for SARS CoV 3CL^pro than for papain” value in experiment [1] was 90–105 times. Further, the IC50 (as a rule, the point on the concentration scale where inhibition reaches its midpoint) in experiment [2] worked out at 10.4 µM.
